Assay results reported in ChEMBL document CHEMBL5584334, “Discovery of a Covalent Inhibitor of Pro-Caspase-1 Zymogen Blocking NLRP3 Inflammasome Activation and Pyroptosis” (J Med Chem, 2024).
Calls of active or inactive are those of the source. The calls are words filed in the database; no cut-off is given here.

Tests used:
J774.A1 [1] = experiment: Downregulation of p65 phosphorylation in mouse J774.A1 cells at 0.5 to 2 uM preincubated for 30 mins followed by LPS addition and measured after 2 hrs by Western blotting analysis; type: functional, cell-based; details: dose 0.5-2 µM, time 2.5 hrs
Caspase-1 (Mus musculus) = biological target: T1, Caspase-1 (Mus musculus) (UniProt P29452); experiment: Binding affinity to caspase-1 in LPS-induced mouse J774.A1 cells assessed as reduction in IL-1beta level at 0.5 uM preincubated with compound followed by nigericin addition; type: cell-based; details: time 3-24 hrs, TDE = time-dependent effect
T1 sequence (whole entry): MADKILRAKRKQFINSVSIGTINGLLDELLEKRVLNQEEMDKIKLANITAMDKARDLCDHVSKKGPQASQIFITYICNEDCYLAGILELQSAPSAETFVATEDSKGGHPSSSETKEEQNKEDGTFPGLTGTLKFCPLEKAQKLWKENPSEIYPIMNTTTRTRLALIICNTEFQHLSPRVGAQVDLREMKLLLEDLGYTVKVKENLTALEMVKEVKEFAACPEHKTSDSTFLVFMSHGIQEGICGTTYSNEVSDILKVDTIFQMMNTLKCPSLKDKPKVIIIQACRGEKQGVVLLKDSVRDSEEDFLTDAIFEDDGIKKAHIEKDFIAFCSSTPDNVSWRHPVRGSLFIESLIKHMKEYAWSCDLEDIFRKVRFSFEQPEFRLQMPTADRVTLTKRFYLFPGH

Caspase-1 = biological target: T2, Caspase-1 (Homo sapiens, UniProt P29466); experiment: Inhibition of recombinant human caspase-1 expressed in Escherichia coli BL21 cells using […] as substrate incubated for 30 mins
T2 sequence (P29466 whole entry): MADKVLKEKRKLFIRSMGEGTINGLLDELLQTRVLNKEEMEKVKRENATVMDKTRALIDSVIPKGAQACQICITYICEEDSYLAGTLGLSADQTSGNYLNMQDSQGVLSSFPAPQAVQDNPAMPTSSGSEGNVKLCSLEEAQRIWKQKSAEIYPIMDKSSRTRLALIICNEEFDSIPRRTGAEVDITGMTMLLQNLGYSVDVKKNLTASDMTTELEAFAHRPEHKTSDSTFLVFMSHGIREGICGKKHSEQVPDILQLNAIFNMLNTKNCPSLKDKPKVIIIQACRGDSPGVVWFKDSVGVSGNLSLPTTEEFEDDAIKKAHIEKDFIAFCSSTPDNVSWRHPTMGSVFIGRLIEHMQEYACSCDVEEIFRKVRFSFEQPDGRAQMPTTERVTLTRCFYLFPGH

THP-1 [2] = experiment: Inhibition of p20 fragment of caspase 1 protein expression in LPS/MSU stimulated human THP-1 cells supernatant by Western blotting analysis; type: functional, cell-based
[3] = test system: Caspase-1 (Homo sapiens), P29466 [C397A]; experiment: Binding affinity to recombinant caspase-1 C397A mutant (unknown origin) at 2 uM by SDS-PAGE analysis
Chain of Caspase-1 (Homo sapiens), P29466 [C397A] (P29466 whole entry C397A): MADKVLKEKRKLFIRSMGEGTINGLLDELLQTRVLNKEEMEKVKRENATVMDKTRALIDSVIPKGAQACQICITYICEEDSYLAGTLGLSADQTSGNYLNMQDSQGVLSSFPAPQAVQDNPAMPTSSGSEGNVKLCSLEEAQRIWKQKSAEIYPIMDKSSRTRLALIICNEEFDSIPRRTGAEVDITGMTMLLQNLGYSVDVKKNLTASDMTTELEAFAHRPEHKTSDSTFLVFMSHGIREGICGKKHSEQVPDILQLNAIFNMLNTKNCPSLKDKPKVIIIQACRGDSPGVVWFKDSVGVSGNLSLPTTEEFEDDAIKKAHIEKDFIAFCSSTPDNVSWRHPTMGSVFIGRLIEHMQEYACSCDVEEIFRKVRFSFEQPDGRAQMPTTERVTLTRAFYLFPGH

Mus musculus [4] = experiment: (§1) Anti-inflammatory activity in MSU/C18:0 free fatty acid induced Kunming mouse model of gouty arthritis assessed as reduction IL-1beta release at 5 to 20 mg/kg, ip preadministered with compound for 30 mins followed by MSU/C18:0 free fatty acid injection and measured after 24 hrs by ELISA; type: functional, organism-based; details: dose 5-20 mg/kg, time 24.5 hrs
Caspase-3 (Mus musculus) = biological target: T3, Caspase-3 (Mus musculus) (UniProt P70677); experiment: Inhibition of cisplatin induced caspase-3 activation in mouse J774.A1 cells at 2 uM preincubated for 30 mins followed by cisplatin addition and incubated overnight; type: cell-based
T3 sequence (whole entry): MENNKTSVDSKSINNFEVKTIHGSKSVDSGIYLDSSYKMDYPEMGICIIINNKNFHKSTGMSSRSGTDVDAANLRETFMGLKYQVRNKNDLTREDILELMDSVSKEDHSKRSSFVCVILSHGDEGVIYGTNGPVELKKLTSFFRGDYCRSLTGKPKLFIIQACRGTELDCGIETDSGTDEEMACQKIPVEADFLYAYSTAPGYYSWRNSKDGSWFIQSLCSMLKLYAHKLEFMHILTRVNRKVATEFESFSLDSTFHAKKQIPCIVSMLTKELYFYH

[5] = Acute toxicity in Kunming mouse assessed as change in LDH level at 100 mg/kg, ip administered for 14 days; type: organism-based; details: in vivo, 336 h, time 14 day
THP-1 [6] = experiment: Effect on pro-1L-1beta protein expression in LPS/MSU stimulated human THP-1 cells supernatant by Western blotting analysis; type: functional, cell-based
J774.A1 [7] = experiment: Inhibition of pyroptosis in mouse J774.A1 cells assessed as reduction in number of annexin V and PI positive cells pretreated with LPS for 3 hrs followed by compound addition in presence of nigericin by flow cytometry analysis; type: functional, cell-based
J774.A1 [8] = experiment: Inhibition of ROS production in LPS/nigericin stimulated mouse J774.A1 cells; type: functional, cell-based
THP-1 [9] = experiment: Effect on pro caspase-5 expression in human THP-1 cells at 2 uM pretreated with pam3CSK4 for 3 hrs followed by compound addition for 30 mins prior to cytosolic LPS stimulation for 16 hrs by ELISA; type: functional, cell-based; details: time 16.5 hrs
[10] = test system: Caspase-1 (Homo sapiens), P29466 [C244A]; experiment: Inhibition of recombinant caspase-1 C244A mutant (unknown origin) at 100 uM relative to control
Chain of Caspase-1 (Homo sapiens), P29466 [C244A] (P29466 whole entry C244A): as the sequence (P29466 whole entry C397A) above, with C244A, A397C counted along it

BMDM [11] = experiment: Effect on cleaved caspase-11 expression in mouse BMDM cells at 0.5 to 2 uM pretreated with pam3CSK4 for 3 hrs followed by compound addition for 30 mins prior to cytosolic LPS stimulation for 16 hrs by ELISA; type: functional, cell-based; details: dose 0.5-2 µM, time 16.5 hrs
BMDM [12] = experiment: Effect on pro caspase-11 expression in mouse BMDM cells at 0.5 to 2 uM pretreated with pam3CSK4 for 3 hrs followed by compound addition for 30 mins prior to cytosolic LPS stimulation for 16 hrs by ELISA; type: functional, cell-based; details: dose 0.5-2 µM, time 16.5 hrs
[13] = biological target: NACHT, LRR and PYD domains-containing protein 3 (Mus musculus) (UniProt Q8R4B8); experiment: Inhibition of NLRP3 inflammasome activation in LPS primed Casp1 knockout mouse BMDM cells transfected with caspase-1 C284A mutant assessed as reduction in IL-1beta release at 2 uM preincubated for 30 mins followed by nigericin stimulation; type: cell-based
Chain of NACHT, LRR and PYD domains-containing protein 3 (Mus musculus) (Q8R4B8 whole entry, the tested form may be a part): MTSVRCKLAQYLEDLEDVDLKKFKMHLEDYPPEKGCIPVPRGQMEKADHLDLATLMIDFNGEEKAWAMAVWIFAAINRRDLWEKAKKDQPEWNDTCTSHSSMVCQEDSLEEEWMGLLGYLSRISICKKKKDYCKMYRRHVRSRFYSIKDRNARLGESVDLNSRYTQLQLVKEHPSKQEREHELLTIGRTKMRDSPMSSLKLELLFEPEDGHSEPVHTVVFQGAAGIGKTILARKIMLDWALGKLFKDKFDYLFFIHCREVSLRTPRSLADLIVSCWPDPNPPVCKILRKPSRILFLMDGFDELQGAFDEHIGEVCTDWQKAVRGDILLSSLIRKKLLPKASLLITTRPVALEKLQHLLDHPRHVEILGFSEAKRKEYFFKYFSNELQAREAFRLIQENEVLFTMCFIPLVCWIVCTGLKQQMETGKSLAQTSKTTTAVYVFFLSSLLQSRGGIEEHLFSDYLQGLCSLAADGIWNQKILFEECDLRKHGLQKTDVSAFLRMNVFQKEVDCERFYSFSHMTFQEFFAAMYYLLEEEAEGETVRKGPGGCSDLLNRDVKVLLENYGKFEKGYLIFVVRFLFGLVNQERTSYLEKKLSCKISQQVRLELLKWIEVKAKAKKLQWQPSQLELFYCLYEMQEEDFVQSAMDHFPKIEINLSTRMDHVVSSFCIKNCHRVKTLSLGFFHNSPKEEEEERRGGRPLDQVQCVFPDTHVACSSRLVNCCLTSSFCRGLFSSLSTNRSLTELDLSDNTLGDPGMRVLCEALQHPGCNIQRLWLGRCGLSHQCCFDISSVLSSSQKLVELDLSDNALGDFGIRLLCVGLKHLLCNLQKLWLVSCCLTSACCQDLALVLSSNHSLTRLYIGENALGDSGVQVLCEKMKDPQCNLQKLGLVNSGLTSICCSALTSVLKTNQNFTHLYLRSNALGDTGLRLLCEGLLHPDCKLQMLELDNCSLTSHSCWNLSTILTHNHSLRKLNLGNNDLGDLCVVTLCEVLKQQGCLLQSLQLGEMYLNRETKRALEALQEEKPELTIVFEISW

Mus musculus [14] = experiment: as §1, with “p20 expression” for “IL-1beta release”, “Western blotting analysis” for “ELISA”; type: functional, organism-based; details: dose 5-20 mg/kg, time 24.5 hrs
Mus musculus [15] = experiment: as §1, with “effect on pro-IL-1beta expression” for “reduction IL-1beta release”, “Western blotting analysis” for “ELISA”; type: functional, organism-based; details: dose 5-20 mg/kg, time 24.5 hrs
HEK293T = experiment: Inhibition of recombinant caspae-1 C285A/C397A double mutant (unknown origin) to GSDMD (unknown origin) interaction expressed in HEK293T cells; type: cell-based; details: Homo sapiens
[16] = Acute toxicity in Kunming mouse assessed as liver damage at 100 mg/kg, ip administered for 14 days; type: organism-based; details: in vivo, 336 h, time 14 day
[17] = Acute toxicity in Kunming mouse assessed as kidney damage at 100 mg/kg, ip administered for 14 days; type: organism-based; details: in vivo, 336 h, time 14 day
J774.A1 [18] = experiment: Downregulation of inhibitor kappa B-alpha phosphorylation in mouse J774.A1 cells at 0.5 to 2 uM preincubated for 30 mins followed by LPS addition and measured after 2 hrs by Western blotting analysis; type: functional, cell-based; details: dose 0.5-2 µM, time 2.5 hrs

COc1ccc2c(c1)[C@]1(C=C[C@H](N=C=S)C[C@H]1C(=O)OC(C)(C)C)C(=O)N2C(=O)OCc1ccccc1
Activity (J774.A1 [1]): Active
Activity (Caspase-1 (Mus musculus)): Tde
IC50 (Caspase-1): 650 nM
inhibition (THP-1 [2]): Active
Activity [3]: inactive
Activity (Mus musculus [4]): Active
inhibition (Caspase-3 (Mus musculus)): inactive
Activity [5]: Non-Toxic
Activity (THP-1 [6]): inactive
inhibition (J774.A1 [7]): Active
inhibition (J774.A1 [8]): inactive
Activity (THP-1 [9]): inactive
inhibition [10]: inactive
Activity (BMDM [11]): inactive
Activity (BMDM [12]): inactive
inhibition [13]: inactive
Activity (Mus musculus [14]): Active
Activity (Mus musculus [15]): inactive
inhibition (HEK293T): inactive
Activity [16]: Non-Toxic
Activity [17]: Non-Toxic
Activity (J774.A1 [18]): Active
